Literature values, collected in US20130150444A1, “MODIFIED RELEASE COMPOSITIONS OF MAGNESIUM VALPROATE” (CADILA HEALTHCARE LIMITED, priority 2011, published 2013).

Details: in comparison with sodium valproate or valproic acid

Substance: magnesium 2-propylvalerate [magnesium valproate]
- absorption rate: slower and more regular
